Measured values reported in ChEMBL document CHEMBL5346873, “Strategic modification of low-activity natural antimicrobial peptides confers antibacterial potential in vitro and in vivo” (Eur J Med Chem, 2023).
Values after ≈ are worked out from the molar mass of the structure shown.

What was measured:
Format in all cases: functional
Escherichia coli [1] = test: Antibacterial activity against Escherichia coli incubated for 16 to 20 hrs; conditions: time 16-20 hrs
Streptococcus iniae [2] = test: Antibacterial activity against Streptococcus iniae incubated for 16 to 20 hrs; conditions: time 16-20 hrs
Vibrio vulnificus [3] = test: Antibacterial activity against Vibrio vulnificus 204 incubated for 16 to 20 hrs; conditions: time 16-20 hrs
Streptococcus agalactiae [4] = test: Antibacterial activity against Streptococcus agalactiae incubated for 16 to 20 hrs; conditions: time 16-20 hrs
Klebsiella aerogenes [5] = test: Antibacterial activity against Enterobacter aerogenes incubated for 16 to 20 hrs; conditions: time 16-20 hrs
Pseudomonas aeruginosa [6] = test: Antibacterial activity against Pseudomonas aeruginosa incubated for 16 to 20 hrs; conditions: time 16-20 hrs
Acinetobacter baumannii = test: Antibacterial activity against Acinetobacter baumannii
Klebsiella pneumoniae [7] = test: Antibacterial activity against NDM Klebsiella pneumoniae incubated for 16 to 20 hrs; conditions: time 16-20 hrs
Vibrio vulnificus [8] = test: Antibacterial activity against Vibrio vulnificus 204 assessed as induction of resistance development by measuring fold increase in MIC measured after 15 passages
[9] = tested on: Staphylococcus haemolyticus; test: Antibacterial activity against Staphylococcus haemolyticus incubated for 16 to 20 hrs; conditions: time 16-20 hrs
Vibrio harveyi [10] = test: Antibacterial activity against Vibrio harveyi incubated for 16 to 20 hrs; conditions: time 16-20 hrs
Aeromonas hydrophila [11] = test: Antibacterial activity against Aeromonas hydrophila incubated for 16 to 20 hrs; conditions: time 16-20 hrs
Enterococcus faecium [12] = test: Antibacterial activity against Enterococcus faecium incubated for 16 to 20 hrs; conditions: time 16-20 hrs
Vibrio vulnificus [13] = test: Bactericidal activity against Vibrio vulnificus V3 incubated overnight
Vibrio anguillarum [14] = test: Bactericidal activity against Listonella anguillarum incubated overnight
Vibrio vulnificus [15] = test: Bactericidal activity against Vibrio vulnificus V2 incubated overnight
Klebsiella pneumoniae [16] = test: Bactericidal activity against NDM Klebsiella pneumoniae incubated overnight
Aeromonas hydrophila [17] = test: Bactericidal activity against Aeromonas hydrophila incubated overnight
Klebsiella oxytoca [18] = test: Antibacterial activity against Klebsiella oxytoca incubated for 16 to 20 hrs; conditions: time 16-20 hrs
[19] = tested on: Staphylococcus haemolyticus; test: Bactericidal activity against Staphylococcus haemolyticus incubated overnight
Nakaseomyces glabratus [20] = test: Fungicidal activity against Candida glabrata incubated overnight
Vibrio vulnificus [21] = test: Bactericidal activity against Vibrio vulnificus V1 incubated overnight
Salmonella typhimurium [22] = test: Bactericidal activity against Salmonella typhimurium incubated overnight; conditions: Salmonella enterica subsp. enterica serovar Typhimurium
Enterococcus faecalis [23] = test: Bactericidal activity against Enterococcus faecalis incubated overnight
Pseudomonas aeruginosa [24] = test: Bactericidal activity against Pseudomonas aeruginosa incubated overnight
Escherichia coli [25] = test: Bactericidal activity against Escherichia coli incubated overnight
Enterococcus faecium [26] = test: Bactericidal activity against Enterococcus faecium incubated overnight
Vibrio vulnificus [27] = test: Antibacterial activity against Vibrio vulnificus V2 incubated for 16 to 20 hrs; conditions: time 16-20 hrs
Vibrio alginolyticus [28] = test: Bactericidal activity against Vibrio alginolyticus incubated overnight
Edwardsiella tarda [29] = test: Antibacterial activity against Edwardsiella tarda incubated for 16 to 20 hrs; conditions: time 16-20 hrs
Streptococcus iniae [30] = test: Bactericidal activity against Streptococcus iniae incubated overnight
Salmonella enterica [31] = test: Antibacterial activity against Salmonella enterica incubated for 16 to 20 hrs; conditions: time 16-20 hrs
Candida tropicalis [32] = test: Antifungal activity against Candida tropicalis incubated for 16 to 20 hrs; conditions: time 16-20 hrs
Vibrio vulnificus [33] = test: Antibacterial activity against Vibrio vulnificus V3 incubated for 16 to 20 hrs; conditions: time 16-20 hrs
Nakaseomyces glabratus [34] = test: Antifungal activity against Candida glabrata incubated for 16 to 20 hrs; conditions: time 16-20 hrs
Candida tropicalis [35] = test: Fungicidal activity against Candida tropicalis incubated overnight
Vibrio alginolyticus [36] = test: Antibacterial activity against Vibrio alginolyticus incubated for 16 to 20 hrs; conditions: time 16-20 hrs
Edwardsiella tarda [37] = test: Bactericidal activity against Edwardsiella tarda incubated overnight
Klebsiella aerogenes [38] = test: Bactericidal activity against Enterobacter aerogenes incubated overnight
Enterococcus faecalis [39] = test: Antibacterial activity against Enterococcus faecalis incubated for 16 to 20 hrs; conditions: time 16-20 hrs
Vibrio vulnificus [40] = test: Bactericidal activity against Vibrio vulnificus 204 incubated overnight
Salmonella enterica [41] = test: Bactericidal activity against Salmonella enterica incubated overnight
Vibrio harveyi [42] = test: Bactericidal activity against Vibrio harveyi incubated overnight
Klebsiella oxytoca [43] = test: Bactericidal activity against Klebsiella oxytoca incubated overnight
Vibrio vulnificus [44] = test: Antibacterial activity against Vibrio vulnificus V1 incubated for 16 to 20 hrs; conditions: time 16-20 hrs
Streptococcus agalactiae [45] = test: Bactericidal activity against Streptococcus agalactiae incubated overnight
Vibrio anguillarum [46] = test: Antibacterial activity against Listonella anguillarum incubated for 16 to 20 hrs; conditions: time 16-20 hrs
Salmonella typhimurium [47] = test: Antibacterial activity against Salmonella typhimurium incubated for 16 to 20 hrs; conditions: Salmonella enterica subsp. enterica serovar Typhimurium; time 16-20 hrs

Work on `C[C@@H](O)[C@H]1C(=O)N2C(C(=O)O)=C(S[C@@H]3CN[C@H](C(=O)N(C)C)C3)[C@H](C)[C@H]12` [MEROPENEM] yielded an MIC (Escherichia coli [1]) of 0.012 µg/mL (≈ 0.0313 µM), an MIC (Streptococcus iniae [2]) of 0.39 µg/mL (≈ 1.02 µM) and an MIC (Vibrio vulnificus [3]) of 0.024 µg/mL (≈ 0.0626 µM). For the same molecule, the MIC (Streptococcus agalactiae [4]) was 0.024 µg/mL (≈ 0.0626 µM), the MIC (Klebsiella aerogenes [5]) was 0.024 µg/mL (≈ 0.0626 µM) and the MIC (Pseudomonas aeruginosa [6]) was 0.39 µg/mL (≈ 1.02 µM). The MIC (Acinetobacter baumannii) was 0.39 µg/mL (≈ 1.02 µM) and the MIC (Klebsiella pneumoniae [7]) was 200 µg/mL (≈ 522 µM).

For `CN(C)[C@@H]1C(O)=C(C(N)=O)C(=O)[C@@]2(O)C(O)=C3C(=O)c4c(O)cccc4[C@@](C)(O)[C@H]3C[C@@H]12` [TETRACYCLINE], the “fold change (FC)” value (Vibrio vulnificus [8]) was 128.

In the case of COLISTIN, the MIC [9] is reported as 3.12 µg/mL, the MIC (Escherichia coli [1]) is reported as less than 1.56 µg/mL and the MIC (Vibrio harveyi [10]) is reported as greater than 100 µg/mL. It also gave an MIC (Aeromonas hydrophila [11]) of 100 µg/mL, an MIC (Enterococcus faecium [12]) greater than 100 µg/mL and an MBC (Vibrio vulnificus [13]) of 50 µg/mL. For the same molecule, the MBC (Vibrio anguillarum [14]) was 6.25 µg/mL, the MIC (Streptococcus iniae [2]) was 12.5 µg/mL and the MBC (Vibrio vulnificus [15]) was 50 µg/mL. It also gave an MIC (Vibrio vulnificus [3]) of 25 µg/mL, an MBC (Klebsiella pneumoniae [16]) of less than 1.56 µg/mL and an MBC (Aeromonas hydrophila [17]) greater than 100 µg/mL. It also gave an MIC (Klebsiella oxytoca [18]) of 12.5 µg/mL, an MIC (Streptococcus agalactiae [4]) of 50 µg/mL and an MBC [19] of 3.12 µg/mL. It also gave an MFC (Nakaseomyces glabratus [20]) greater than 100 µg/mL, an MBC (Vibrio vulnificus [21]) of 50 µg/mL and an MBC (Salmonella typhimurium [22]) of less than 1.56 µg/mL. For the same molecule, the MBC (Enterococcus faecalis [23]) was 50 µg/mL, the MBC (Pseudomonas aeruginosa [24]) was less than 1.56 µg/mL and the MBC (Escherichia coli [25]) was less than 1.56 µg/mL. It also gave an MBC (Enterococcus faecium [26]) greater than 100 µg/mL, an MIC (Klebsiella aerogenes [5]) of less than 1.56 µg/mL and an MIC (Vibrio vulnificus [27]) of 50 µg/mL. It also gave an MBC (Vibrio alginolyticus [28]) of 3.12 µg/mL, an MIC (Edwardsiella tarda [29]) of 6.25 µg/mL and an MBC (Streptococcus iniae [30]) of 25 µg/mL. For the same molecule, the MIC (Salmonella enterica [31]) was less than 1.56 µg/mL, the MIC (Pseudomonas aeruginosa [6]) was less than 1.56 µg/mL and the MIC (Candida tropicalis [32]) was 12.5 µg/mL. The MIC (Vibrio vulnificus [33]) was 50 µg/mL, the MIC (Nakaseomyces glabratus [34]) was greater than 100 µg/mL and the MFC (Candida tropicalis [35]) was 12.5 µg/mL. The MIC (Vibrio alginolyticus [36]) was 3.12 µg/mL, the MBC (Edwardsiella tarda [37]) was 6.25 µg/mL and the MBC (Klebsiella aerogenes [38]) was less than 1.56 µg/mL. The MIC (Enterococcus faecalis [39]) was less than 1.56 µg/mL, the MBC (Vibrio vulnificus [40]) was greater than 100 µg/mL and the MBC (Salmonella enterica [41]) was less than 1.56 µg/mL. It also gave an MBC (Vibrio harveyi [42]) greater than 100 µg/mL, an MIC (Klebsiella pneumoniae [7]) of less than 1.56 µg/mL and an MBC (Klebsiella oxytoca [43]) of 12.5 µg/mL. For the same molecule, the MIC (Vibrio vulnificus [44]) was 50 µg/mL, the fold change (FC) (Vibrio vulnificus [8]) was 16 and the MBC (Streptococcus agalactiae [45]) was 50 µg/mL. It also gave an MIC (Vibrio anguillarum [46]) of less than 1.56 µg/mL and an MIC (Salmonella typhimurium [47]) of less than 1.56 µg/mL.
